Assay results from the supplement of paper PMC10307832.

What was measured:
Test in all cases: relative viability (nuclei count vs DMSO), 5 days (fraction); higher = more cells survive
Calu-6 = system: Calu-6
Summary of the method: (§1)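 A single step with final 0.05% Triton X-100, 1% formaldehyde and 1 ug/ml Hoechst fixed the cells and stained nuclei 5 days after treatment. Lung cancer cell lines in 1536-well plates had been treated by pin tool the day after seeding with one drug alone or a fixed anchor-drug dose plus five library-drug doses (not always all listed) in √10 steps, and nuclei were counted on 4× images. Relative viability is the ratio of nuclei in treated wells to nuclei in vehicle wells, taken as the median of duplicate plates.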

NCI-H23 = system: NCI-H23
Summary of the method: as §1

LCLC-97TM1 = system: LCLC-97TM1
Summary of the method: as §1

NCI-H322M = system: NCI-H322M
Summary of the method: as §1

NCI-H1299 = system: NCI-H1299
Summary of the method: as §1

NCI-H1703 = system: NCI-H1703
Summary of the method: as §1

NCI-H596 = system: NCI-H596
Summary of the method: as §1

EBC-1 = system: EBC-1
Summary of the method: as §1

IA-LM = system: IA-LM
Summary of the method: as §1

NCI-H1355 = system: NCI-H1355
Summary of the method: as §1

NCI-H1993 = system: NCI-H1993
Summary of the method: as §1

A549 = system: A549
Summary of the method: as §1

UMC-11 = system: UMC-11
Summary of the method: as §1

## Nc1ccn([C@@H]2O[C@H](CO)[C@@H](O)[C@@H]2O)c(=O)n1 [Cytarabine] + C[C@]1(O)C[C@@H](c2nc(-c3ccc4ccc(-c5ccccc5)nc4c3)c3c(N)nccn32)C1 [Linsitinib] (partner 1 µM)
Calu-6; first compound 0.005 µM
  relative viability: 0.928
Calu-6; first compound 0.01581 µM
  relative viability: 0.871
Calu-6; first compound 0.05 µM
  relative viability: 0.734
Calu-6; first compound 0.1581 µM
  relative viability: 0.444
Calu-6; first compound 0.5 µM
  relative viability: 0.283
NCI-H23; first compound 0.005 µM
  relative viability: 0.544
NCI-H23; first compound 0.01581 µM
  relative viability: 0.417
NCI-H23; first compound 0.05 µM
  relative viability: 0.294
NCI-H23; first compound 0.1581 µM
  relative viability: 0.157
NCI-H23; first compound 0.5 µM
  relative viability: 0.14
LCLC-97TM1; first compound 0.005 µM
  relative viability: 0.167
LCLC-97TM1; first compound 0.01581 µM
  relative viability: 0.148
LCLC-97TM1; first compound 0.05 µM
  relative viability: 0.111
LCLC-97TM1; first compound 0.1581 µM
  relative viability: 0.101
LCLC-97TM1; first compound 0.5 µM
  relative viability: 0.0967
NCI-H322M; first compound 0.005 µM
  relative viability: 0.822
NCI-H322M; first compound 0.01581 µM
  relative viability: 0.707
NCI-H322M; first compound 0.05 µM
  relative viability: 0.628
NCI-H322M; first compound 0.1581 µM
  relative viability: 0.464
NCI-H322M; first compound 0.5 µM
  relative viability: 0.43
NCI-H1299; first compound 0.005 µM
  relative viability: 0.928
NCI-H1299; first compound 0.01581 µM
  relative viability: 1.07
NCI-H1299; first compound 0.05 µM
  relative viability: 1
NCI-H1299; first compound 0.1581 µM
  relative viability: 1.05
NCI-H1299; first compound 0.5 µM
  relative viability: 0.886
NCI-H1703; first compound 0.005 µM
  relative viability: 0.339
NCI-H1703; first compound 0.01581 µM
  relative viability: 0.346
NCI-H1703; first compound 0.05 µM
  relative viability: 0.166
NCI-H1703; first compound 0.1581 µM
  relative viability: 0.107
NCI-H1703; first compound 0.5 µM
  relative viability: 0.0904
NCI-H596; first compound 0.005 µM
  relative viability: 1.03
NCI-H596; first compound 0.01581 µM
  relative viability: 0.857
NCI-H596; first compound 0.05 µM
  relative viability: 0.763
NCI-H596; first compound 0.1581 µM
  relative viability: 0.658
NCI-H596; first compound 0.5 µM
  relative viability: 0.628
EBC-1; first compound 0.005 µM
  relative viability: 0.742
EBC-1; first compound 0.01581 µM
  relative viability: 0.815
EBC-1; first compound 0.05 µM
  relative viability: 0.614
EBC-1; first compound 0.1581 µM
  relative viability: 0.461
EBC-1; first compound 0.5 µM
  relative viability: 0.296
IA-LM; first compound 0.005 µM
  relative viability: 0.326
IA-LM; first compound 0.01581 µM
  relative viability: 0.763
IA-LM; first compound 0.05 µM
  relative viability: 0.357
IA-LM; first compound 0.1581 µM
  relative viability: 0.243
IA-LM; first compound 0.5 µM
  relative viability: 0.201
NCI-H1355; first compound 0.005 µM
  relative viability: 0.788
NCI-H1355; first compound 0.01581 µM
  relative viability: 0.8
NCI-H1355; first compound 0.05 µM
  relative viability: 0.627
NCI-H1355; first compound 0.1581 µM
  relative viability: 0.451
NCI-H1355; first compound 0.5 µM
  relative viability: 0.32
NCI-H1993; first compound 0.005 µM
  relative viability: 0.703
NCI-H1993; first compound 0.01581 µM
  relative viability: 0.795
NCI-H1993; first compound 0.05 µM
  relative viability: 0.672
NCI-H1993; first compound 0.1581 µM
  relative viability: 0.539
NCI-H1993; first compound 0.5 µM
  relative viability: 0.471
A549; first compound 0.005 µM
  relative viability: 0.579
A549; first compound 0.01581 µM
  relative viability: 0.499
A549; first compound 0.05 µM
  relative viability: 0.407
A549; first compound 0.1581 µM
  relative viability: 0.0819
A549; first compound 0.5 µM
  relative viability: 0.0375
UMC-11; first compound 0.005 µM
  relative viability: 0.637
UMC-11; first compound 0.01581 µM
  relative viability: 0.637
UMC-11; first compound 0.05 µM
  relative viability: 0.424
UMC-11; first compound 0.1581 µM
  relative viability: 0.246
UMC-11; first compound 0.5 µM
  relative viability: 0.226

## Cc1sc2c(c1C)C(c1ccc(Cl)cc1)=N[C@@H](CC(=O)OC(C)(C)C)c1nnc(C)n1-2 [JQ1] + CS(=O)(=O)CCNCc1ccc(-c2ccc3ncnc(Nc4ccc(OCc5cccc(F)c5)c(Cl)c4)c3c2)o1 [Lapatinib] (partner 2 µM)
Calu-6; first compound 0.04 µM
  relative viability: 1.11
Calu-6; first compound 0.1265 µM
  relative viability: 0.9
Calu-6; first compound 0.4 µM
  relative viability: 0.999
Calu-6; first compound 1.265 µM
  relative viability: 0.598
Calu-6; first compound 4 µM
  relative viability: 0.564
NCI-H23; first compound 0.04 µM
  relative viability: 0.956
NCI-H23; first compound 0.1265 µM
  relative viability: 0.943
NCI-H23; first compound 0.4 µM
  relative viability: 1.09
NCI-H23; first compound 1.265 µM
  relative viability: 0.301
NCI-H23; first compound 4 µM
  relative viability: 0.362
LCLC-97TM1; first compound 0.1265 µM
  relative viability: 0.805
LCLC-97TM1; first compound 0.4 µM
  relative viability: 0.781
LCLC-97TM1; first compound 1.265 µM
  relative viability: 0.243
LCLC-97TM1; first compound 4 µM
  relative viability: 0.252
NCI-H322M; first compound 0.04 µM
  relative viability: 0.634
NCI-H322M; first compound 0.1265 µM
  relative viability: 0.658
NCI-H322M; first compound 0.4 µM
  relative viability: 0.572
NCI-H322M; first compound 1.265 µM
  relative viability: 0.506
NCI-H322M; first compound 4 µM
  relative viability: 0.467
NCI-H1299; first compound 0.04 µM
  relative viability: 0.975
NCI-H1299; first compound 0.1265 µM
  relative viability: 0.802
NCI-H1299; first compound 0.4 µM
  relative viability: 0.837
NCI-H1299; first compound 1.265 µM
  relative viability: 0.391
NCI-H1299; first compound 4 µM
  relative viability: 0.316
NCI-H1703; first compound 0.04 µM
  relative viability: 1.07
NCI-H1703; first compound 0.1265 µM
  relative viability: 0.764
NCI-H1703; first compound 0.4 µM
  relative viability: 1.2
NCI-H1703; first compound 1.265 µM
  relative viability: 0.47
NCI-H1703; first compound 4 µM
  relative viability: 0.432
NCI-H596; first compound 0.04 µM
  relative viability: 1.07
NCI-H596; first compound 0.1265 µM
  relative viability: 0.956
NCI-H596; first compound 0.4 µM
  relative viability: 0.887
NCI-H596; first compound 1.265 µM
  relative viability: 0.546
NCI-H596; first compound 4 µM
  relative viability: 0.415
EBC-1; first compound 0.04 µM
  relative viability: 0.205
EBC-1; first compound 0.1265 µM
  relative viability: 0.208
EBC-1; first compound 0.4 µM
  relative viability: 0.172
EBC-1; first compound 1.265 µM
  relative viability: 0.152
EBC-1; first compound 4 µM
  relative viability: 0.148
IA-LM; first compound 0.04 µM
  relative viability: 0.63
IA-LM; first compound 0.1265 µM
  relative viability: 0.32
IA-LM; first compound 0.4 µM
  relative viability: 0.123
IA-LM; first compound 1.265 µM
  relative viability: 0.0937
IA-LM; first compound 4 µM
  relative viability: 0.116
NCI-H1355; first compound 0.04 µM
  relative viability: 0.967
NCI-H1355; first compound 0.1265 µM
  relative viability: 0.973
NCI-H1355; first compound 0.4 µM
  relative viability: 0.956
NCI-H1355; first compound 1.265 µM
  relative viability: 0.765
NCI-H1355; first compound 4 µM
  relative viability: 0.596
NCI-H1993; first compound 0.04 µM
  relative viability: 0.825
NCI-H1993; first compound 0.1265 µM
  relative viability: 0.812
NCI-H1993; first compound 0.4 µM
  relative viability: 0.676
NCI-H1993; first compound 1.265 µM
  relative viability: 0.702
NCI-H1993; first compound 4 µM
  relative viability: 0.65
A549; first compound 0.04 µM
  relative viability: 0.923
A549; first compound 0.1265 µM
  relative viability: 0.902
A549; first compound 0.4 µM
  relative viability: 1.04
A549; first compound 1.265 µM
  relative viability: 0.553
A549; first compound 4 µM
  relative viability: 0.358
UMC-11; first compound 0.04 µM
  relative viability: 0.876
UMC-11; first compound 0.1265 µM
  relative viability: 0.757
UMC-11; first compound 0.4 µM
  relative viability: 0.419
UMC-11; first compound 1.265 µM
  relative viability: 0.255
UMC-11; first compound 4 µM
  relative viability: 0.271
